According to patent US20110224221A1, “HEMATOPOIETIC PROTECTION AGAINST IONIZING RADIATION USING SELECTIVE CYCLIN-DEPENDENT KINASE 4/6 INHIBITORS” (priority 2008, published 2011):
Entries after “also recorded” stand apart in the source; their conditions may differ.

How the values were obtained:
[1] = test system: human melanoma cell line WM2664; assay: Cell cycle analysis (BrdU incorporation in vitro), WM2664; type: cell-based; details: for cell cycle effect: WM2664, 24 hours exposure
From the text: (§1) FIG. 3A is a set of graphs showing the dose-response curves for cycle analysis in both cyclin-dependent kinase 4/6 (CKD4/6)-dependent cells (human telomerized human diploid fibroblasts (tHDFs, left-hand column of graphs) and a CDK4/6-dependent human melanoma cell line (WM2664, middle column of graphs)) and in CDK4/6-independent cells (a human retinoblastoma tumor suppressor protein (RB)-null melanoma cell line (A2058), right-hand column of graphs). […] The percentage of cells in the G1 phase is indicated by the data shown in the open triangles, while the percentage of cells in the S phase is shown by the data in the shaded circles and the percentage of cells in the G2/M phase is indicated by the data in the double “x”s.
FIG. 8 is a set of representative cell cycle dot-plots for cyclin-dependent kinase 4/6 (CDK4/6)-dependent (WM2664) human melanoma cells (top two rows) and CDK4/6-independent (A2058) human melanoma cells (bottom two rows) that had been treated with dimethyl sulfoxide (DMSO) as a control or with 300 nM, 1 μM, 3 μM, 10 μM or 30 μM of trans-4-[[6-ethylamino)-2-[[2-phenylmethyl)-1H-indol-5-yl]amino]-4-pyrimidinyl]amino]]-cyclohexanol (CINK4).
(§2) Cell Lines: KPTR1, KPTR4. and KPTR5 were derived from tumor-bearing TyrRAS+Ink4a/Arf−/− by standard procedures and cultured in RPMI+10% fetal bovine serum (FBS). Telomerized HDFs (tHDFs, also known as HS68) were cultured in DMEM+10% FBS with penicillin and streptomycin. The same conditions were used for A2058 and WM2664, human melanoma cell lines with known RB-pathway mutations: A2058 is RB-null, whereas WM2664 lacks p16^INK4a/Arf. See Shields, et al., Cancer Res., 67, 1502-1512 (2007). Cells were irradiated for indicated doses in a Rad Source Inc. (Alpharetta, Ga., United States of America) RS-2000 Biological Irradiator at 160 kV, 25.0 mA, at distance setting 1, with a dose rate of 103 rads/min.
(§3) BrdU Incorporation in vitro: Cells were plated and allowed to adhere overnight or at least 6 hours prior to adding CDK4/6 inhibitor at the indicated concentrations. Cells were grown for 24 hours in the presence of CDK4/6 inhibitor. 15 minutes prior to cell harvesting, 5-Bromo-2-deoxyuridine (BrdU) was added to the media at a final concentration of 10 μM. The cells were then washed, trypsinized, pelleted, fixed, permeabilized, stained, and measured on a flow cytometer as described in manufacturer directions for the BrdU Kit (BD Biosciences Pharmingen, San Diego, Calif., United States of America).
(§4) The proliferation of seven RB-deficient human small cell lung cancer lines was also resistant to the selective CDK4/6 inhibitors.

tHDF (HS68) cells = assay: Clonogenic assay after IR, tHDF (HS68); type: cell-based, human; details: PD0332991 100 nM, 2BrIC 2 μM, CINK4 6 μM, IR 0-9 Gy
Experimental: FIG. 6A is a set of micrograph images of crystal violet stained cell cultures of cyclin-dependent kinase 4/6 (CDK4/6)-dependent cells (HS68) plated at different cell/well ratios and treated with either dimethyl sulfoxide (DMSO) as a negative control or with the selective CDK4/6 inhibitor 2-bromo-12,13-dihydro-5H-indolo[2,3-a]pyrrolo[3,4]carbazole-5,6-dione (2BrIC) at 2 μM for 24 hours prior to exposure to ionizing radiation at 0, 1.5, 3, 6, or 9 gray (Gy), as indicated.
Data plotted is the area/cell ratio of PD0332991 treated cells to dimethyl sulfoxide (DMSO) treated cells. Error bars show standard error of the mean.
FIG. 9A is a set of micrograph images of cell cultures of cyclin-dependent kinase 4/6 (CDK4/6)-dependent cells (HS68) plated at different cell/well ratios and pretreated with either dimethyl sulfoxide (DMSO) as a control or with the nonselective CDK4/6 inhibitor trans-4-[[6-ethylamino)-2-[[1-phenylmethyl)-1H-indol-5-yl]amino]-4-pyrimidinyl]amino]]-cyclohexanol (CINK4) at 6 μM for 24 hours prior to exposure to ionizing radiation at 0, 1.5, 3, 6, or 9 gray (Gy), as indicated. The plates were stained with crystal violet to visualize cell colonies.
Clonogenic Assay: The clonogenic assay was performed as previously described (see Franken et al., Nature protocols, 1, 2315-1319 (2006)) with cells plated in a six-well plate at least 6 hours prior to treatment with CDK inhibitor for 24 hours, with 6 Gy IR occurring 12 hours after initiation of CDK inhibitor exposure. Cells were grown for 16 days, washed, fixed, and stained with crystal violet. Plates were then imaged using an Odyssey infrared scanner (Li-Cor Biosciences, Lincoln, Nebr., United States of America) and quantified using the accompanying software.

[2] = test system: RB-null melanoma line A2058; assay: Cell cycle analysis (BrdU incorporation in vitro), A2058; type: cell-based, human; details: A2058, concentrations between 300 nM and 30 μM
From the text: FIG. 3A is a set of graphs showing the dose-response curves for cycle analysis in both cyclin-dependent kinase 4/6 (CKD4/6)-dependent cells (human telomerized human diploid fibroblasts (tHDFs, left-hand column of graphs) and a CDK4/6-dependent human melanoma cell line (WM2664, middle column of graphs)) and in CDK4/6-independent cells (a human retinoblastoma tumor suppressor protein (RB)-null melanoma cell line (A2058), right-hand column of graphs). […] The percentage of cells in the G1 phase is indicated by the data shown in the open triangles, while the percentage of cells in the S phase is shown by the data in the shaded circles and the percentage of cells in the G2/M phase is indicated by the data in the double “x”s. […]
BrdU Incorporation in vitro: Cells were plated and allowed to adhere overnight or at least 6 hours prior to adding CDK4/6 inhibitor at the indicated concentrations. […] The cells were then washed, trypsinized, pelleted, fixed, permeabilized, stained, and measured on a flow cytometer as described in manufacturer directions for the BrdU Kit (BD Biosciences Pharmingen, San Diego, Calif., United States of America). […]

[3] = test system: telomerized human diploid fibroblasts (tHDF); assay: Cell cycle analysis (BrdU incorporation in vitro), tHDF; type: cell-based; details: 24 hours exposure
From the text: as §1, §2, §3, §4

Row | Structure (SMILES) | substantially pure G1 arrest ([1]; WM2664, concentrations between 300 nM and 30 μM) | clonogenic cell survival after IR (area/cell ratio relative to DMSO) (tHDF (HS68) cells) | substantially pure G1 arrest [2] | cell cycle effect [1] | cell cycle effect [3]
1 | CCNc1cc(N[C@H]2CC[C@H](O)CC2)nc(Nc2ccc3c(ccn3Cc3ccccc3)c2)n1 [CINK4] | did not induce a substantially pure (i.e. “clean”) G1 arrest | failed to enhance cell survival; also recorded: lack of enhanced cell survival | did not induce a substantially pure (i.e. “clean”) G1 arrest |  | 
2 | COc1ccc(F)c(F)c1C(=O)c1cnc(NC2CCN(S(C)(=O)=O)CC2)nc1N [Compound 7] |  |  |  | G2/M block, intra-S arrest, or cell death (sub-GO) | G2/M block, intra-S arrest, or cell death (sub-GO)
3 | CN1CC[C@H](c2c(O)cc(O)c3c(=O)cc(-c4ccccc4Cl)oc23)[C@H](O)C1 [flavopiridol] |  |  |  | G2/M block, intra-S arrest, or cell death (sub-GO) | G2/M block, intra-S arrest, or cell death (sub-GO)
4 | CC[C@H](CO)Nc1nc(NCc2ccccc2)c2ncn(C(C)C)c2n1 [roscovitine, Roscovitine] |  |  |  | G2/M block, intra-S arrest, or cell death (sub-GO) | G2/M block, intra-S arrest, or cell death (sub-GO)
